{"source": "paper PMC7874188", "about": "“Mucoromycotina Fungi Possess the Ability to Utilize Plant Sucrose as a Carbon Source: Evidence From Gongronella sp. w5” (Frontiers in Microbiology, 2021)", "system": "T1, GspInv", "T1 construct": "native, purified from w5 mycelia cytoplasm (High Q, Sephacryl S100); untagged", "assay": "invertase hydrolysis kinetics, […] substrate", "assay_type": "biochemical, Gongronella sp. w5", "settings": "pH 5.0 citrate-Na2HPO4, optimal temperature; constant printed only as \"substrate affinity\"", "data": [{"smiles": "OC[C@H]1O[C@@](CO)(O[C@H]2O[C@H](CO)[C@@H](O)[C@H](O)[C@H]2O)[C@@H](O)[C@@H]1O", "note": "[sucrose]", "values": [{"measurement": "Km", "result": 3.1, "unit": "mM"}]}]}
